Drawing on PubChem BioAssay AID330 (DTP/NCI, 2004), this text covers T/C for 22 compounds.

The subject of the assay is P388 leukemia ip, CD2F1 mice, survival T/C. Nature of the assay: NCI In Vivo Anticancer Drug Screen. Data for tumor model P388 Leukemia (intraperitoneal) in CD2F1 (CDF1) mice. As to conditions: endpoint: median survival time, higher = longer survival. The method, boiled down:
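Mice carrying the transplanted tumor received test compound or vehicle. Survival was recorded in each group, and the value is the treated-group measurement divided by that of the vehicle-treated control group.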

Where [1] appears, read: dose: 25.0 mg/kg/injection, schedule: Q01DX009 (ip), vehicle: saline with Tween-80.
Where [2] appears, read: dose: 50.0 mg/kg/injection, schedule: Q01DX009 (ip), vehicle: saline with Tween-80.
The mark [3] stands for this setting: dose: 50.0 mg/kg/injection, schedule: Q01DX005 (ip), vehicle: saline with Tween-80.
The mark [4] stands for this setting: dose: 100.0 mg/kg/injection, schedule: Q01DX005 (ip), vehicle: saline with Tween-80.
Setting [5] is: dose: 200.0 mg/kg/injection, schedule: Q01DX005 (ip), vehicle: saline with Tween-80.
[6] abbreviates: dose: 50.0 mg/kg/injection, schedule: Q01DX005 (ip), vehicle: Klucel (hydroxypropylcellulose) (HPC).
The mark [7] stands for this setting: dose: 100.0 mg/kg/injection, schedule: Q01DX005 (ip), vehicle: Klucel (hydroxypropylcellulose) (HPC).
Setting [8] is: dose: 200.0 mg/kg/injection, schedule: Q01DX005 (ip), vehicle: Klucel (hydroxypropylcellulose) (HPC).
Setting [9] is: dose: 50.0 mg/kg/injection, schedule: Q01DX009 (ip), vehicle: Klucel (hydroxypropylcellulose) (HPC).
Where [10] appears, read: dose: 100.0 mg/kg/injection, schedule: Q01DX009 (ip), vehicle: Klucel (hydroxypropylcellulose) (HPC).
Where [11] appears, read: dose: 200.0 mg/kg/injection, schedule: Q01DX009 (ip), vehicle: Klucel (hydroxypropylcellulose) (HPC).
Setting [12] is: dose: 100.0 mg/kg/injection, schedule: Q04DX003 (ip), vehicle: Klucel (hydroxypropylcellulose) (HPC).

“And” between values parts separate entries of the source, which are not always exact repeats. Equal entries are not always repeated. Toxic doses and inconclusive results are not listed.

Consider `COc1ccc(-c2n(O)c(C)c(C)[n+]2[O-])cc1`, for which the T/C reads like this: (dose: 12.5 mg/kg/injection, schedule: Q01DX009 (ip), vehicle: saline with Tween-80) 101 % of control; under setting [1], 100 % of control; under setting [2], 102 % of control and 92 % of control.
Regarding `c1cc[c]([Sn]([O][Sn]([c]2ccccc2)([c]2ccccc2)[c]2ccccc2)([c]2ccccc2)[c]2ccccc2)cc1`, the T/C (dose: 0.38 mg/kg/injection, schedule: Q04DX003 (ip), vehicle: saline) is 110 % of control; the T/C (dose: 0.75 mg/kg/injection, schedule: Q04DX003 (ip), vehicle: saline) was 113 % of control; the T/C (dose: 1.5 mg/kg/injection, schedule: Q04DX003 (ip), vehicle: saline) was 98 % of control; the T/C (dose: 3.13 mg/kg/injection, schedule: Q04DX003 (ip), vehicle: Klucel (hydroxypropylcellulose) (HPC)) is 90 % of control; the T/C (dose: 6.25 mg/kg/injection, schedule: Q04DX003 (ip), vehicle: saline with Tween-80) was 105 % of control.
With `Nc1ncnc2nc(/N=N/SCCC(=O)O)[nH]c12`, the T/C by setting is: under setting [3], 108 % of control; under setting [4], 103 % of control; under setting [5], 100 % of control.
In the case of `CNC1C(c2ccc(C)cc2)=NN(c2ccccc2)C1c1ccccc1` (stereo unspecified), the T/C was 100 % of control (dose: 100.0 mg/kg/injection, schedule: Q01DX001 (ip), vehicle: saline sonified); 100 % of control (dose: 200.0 mg/kg/injection, schedule: Q01DX001 (ip), vehicle: saline sonified); 105 % of control (dose: 400.0 mg/kg/injection, schedule: Q01DX001 (ip), vehicle: saline sonified).
Turning to `Cc1ccc(C(O)(c2ccc(C)cc2)C2(O)CCN(C)CC2)cc1`, the T/C under setting [6] was 107 % of control, the T/C under setting [7] was 97 % of control and the T/C under setting [8] was 92 % of control.
On to `COc1ccc2cc1Oc1ccc(cc1)CC1c3cc(OC)c(OC)c(c3CCN1C)Oc1c(O)c(OC)cc3c1C(C2)N(C)CC3` (stereo unspecified), for which the T/C is 109 % of control (dose: 20.0 mg/kg/injection, schedule: Q01DX009 (ip), vehicle: Klucel (hydroxypropylcellulose) (HPC)); 108 % of control (dose: 40.0 mg/kg/injection, schedule: Q01DX009 (ip), vehicle: Klucel (hydroxypropylcellulose) (HPC)); 101 % of control (dose: 80.0 mg/kg/injection, schedule: Q01DX009 (ip), vehicle: Klucel (hydroxypropylcellulose) (HPC)); 113 % of control (dose: 160.0 mg/kg/injection, schedule: Q01DX009 (ip), vehicle: Klucel (hydroxypropylcellulose) (HPC)).
In the case of `COc1ccc(B2OCCO2)cc1`, the T/C reads like this: under setting [3], 100 % of control; under setting [4], 97 % of control; under setting [5], 101 % of control.
Taken in the same sequence, the figures for `CCc1ccc2c(c1)C(O)(c1ccccc1)c1c(c(-c3ccccc3)c3ccccc3c1-c1ccccc1)C2(O)c1ccccc1` (stereo unspecified) were 92 % of control, 89 % of control and 89 % of control.
Regarding `COc1c(Cl)c2c(c(OC)c1OC)-c1ccc(OC)c(=O)cc1C(NC(C)=O)CC2` (stereo unspecified), the T/C was 151 % of control (dose: 0.78 mg/kg/injection, schedule: Q01DX009 (ip), vehicle: Klucel (hydroxypropylcellulose) (HPC)); 179 % of control and 188 % of control (dose: 1.56 mg/kg/injection, schedule: Q01DX009 (ip), vehicle: Klucel (hydroxypropylcellulose) (HPC)); 199 % of control (dose: 3.12 mg/kg/injection, schedule: Q01DX009 (ip), vehicle: Klucel (hydroxypropylcellulose) (HPC)).
Take `CCC1COCC1Cc1cncn1C` (stereo unspecified): the T/C was 100 % of control (dose: 60.0 mg/kg/injection, schedule: Q01DX005 (ip), vehicle: saline) and 103 % of control (dose: 120.0 mg/kg/injection, schedule: Q01DX005 (ip), vehicle: saline).
As to `CC(C)(C)C(=O)CS(=O)(=O)CC(=O)C(C)(C)C`, the T/C reads like this: under setting [1], 112 % of control; under setting [2], 108 % of control; (dose: 100.0 mg/kg/injection, schedule: Q01DX009 (ip), vehicle: saline with Tween-80) 103 % of control.
As for `Cc1c(Br)c(Br)nn1C(C)C(=O)N(C)C` (stereo unspecified), the T/C was 110 % of control under setting [9], 99 % of control under setting [10] and 101 % of control under setting [11].
Consider `N/C(=N\C(=O)OCc1ccccc1)NC(=O)OCc1ccccc1`, for which the T/C by setting is: (dose: 25.0 mg/kg/injection, schedule: Q01DX009 (ip), vehicle: Klucel (hydroxypropylcellulose) (HPC)) 99 % of control and 109 % of control; under setting [9], 104 % of control and 105 % of control; under setting [10], 103 % of control and 104 % of control; under setting [11], 99 % of control and 100 % of control; (dose: 400.0 mg/kg/injection, schedule: Q01DX009 (ip), vehicle: Klucel (hydroxypropylcellulose) (HPC)) 99 % of control and 93 % of control.
Consider `Cc1c(O)c2c(c(O)c1Cc1cccc(CN)c1)C(=O)c1ccccc1C2=O`, for which the T/C runs as follows: (dose: 1.56 mg/kg/injection, schedule: Q01DX009 (ip), vehicle: water) 91 % of control; (dose: 25.0 mg/kg/injection, schedule: Q01DX009 (ip), vehicle: water) 89 % of control.
As for `O=C(O)C(Nc1ncnc2c1ncn2C1OC(CO)C(O)C1O)C(F)(F)C(=O)O` (stereo unspecified), the T/C is, setting by setting: (dose: 100.0 mg/kg/injection, schedule: Q04DX003 (ip), vehicle: saline) 97 % of control; (dose: 200.0 mg/kg/injection, schedule: Q04DX003 (ip), vehicle: saline) 100 % of control; (dose: 400.0 mg/kg/injection, schedule: Q04DX003 (ip), vehicle: saline) 99 % of control.
For `COc1cc(N2C(N)=NC(N)=NC2(C)C)cc(OC)c1OC`, the T/C (dose: 6.25 mg/kg/injection, schedule: Q01DX009 (ip), vehicle: saline) is 100 % of control; the T/C (dose: 12.5 mg/kg/injection, schedule: Q01DX009 (ip), vehicle: saline) is 95 % of control; the T/C (dose: 25.0 mg/kg/injection, schedule: Q01DX009 (ip), vehicle: saline) is 90 % of control.
For the compound `Cc1ccc2[nH]c3c(c2c1)C(=O)CCC3`, the T/C was 97 % of control under setting [6], 95 % of control under setting [7] and 92 % of control under setting [8].
Regarding `FC(F)(F)Sc1c(SC(F)(F)F)c(SC(F)(F)F)n(-n2c(SC(F)(F)F)c(SC(F)(F)F)c(SC(F)(F)F)c2SC(F)(F)F)c1SC(F)(F)F`, the T/C is, setting by setting: (dose: 15.0 mg/kg/injection, schedule: Q01DX005 (ip), vehicle: Klucel (hydroxypropylcellulose) (HPC)) 104 % of control; (dose: 30.0 mg/kg/injection, schedule: Q01DX005 (ip), vehicle: Klucel (hydroxypropylcellulose) (HPC)) 106 % of control; (dose: 60.0 mg/kg/injection, schedule: Q01DX005 (ip), vehicle: Klucel (hydroxypropylcellulose) (HPC)) 103 % of control and 97 % of control.
In the case of `O=C1CSC(c2ccco2)N1CCN1C(=O)CSC1c1ccco1` (stereo unspecified), the T/C (dose: 100.0 mg/kg/injection, schedule: Q04DX002 (ip), vehicle: saline with Tween-80) was 100 % of control; the T/C (dose: 200.0 mg/kg/injection, schedule: Q04DX002 (ip), vehicle: saline with Tween-80) was 98 % of control; the T/C (dose: 400.0 mg/kg/injection, schedule: Q04DX002 (ip), vehicle: saline with Tween-80) was 91 % of control.
Turning to `C[C@@H]1C[C@@]2(C)[C@@H](CC[C@@H]3[C@@H]2CC[C@]2(C)[C@@H](O)CC[C@@H]32)CC1=O`, the T/C reads like this: under setting [12], 100 % of control; (dose: 200.0 mg/kg/injection, schedule: Q04DX003 (ip), vehicle: Klucel (hydroxypropylcellulose) (HPC)) 100 % of control.
As to `Clc1nnc(-c2ccccc2)s1`, the T/C by setting is: (dose: 25.0 mg/kg/injection, schedule: Q04DX003 (ip), vehicle: Klucel (hydroxypropylcellulose) (HPC)) 100 % of control; (dose: 50.0 mg/kg/injection, schedule: Q04DX003 (ip), vehicle: Klucel (hydroxypropylcellulose) (HPC)) 102 % of control; under setting [12], 100 % of control.
On to `BrCCN(CCBr)c1ccc2c3c(cccc13)-c1ccccc1-2`, for which the T/C is, setting by setting: (dose: 4.0 mg/kg/injection, schedule: Q01DX009 (ip), vehicle: saline with Tween-80) 160 % of control and 163 % of control; (dose: 6.0 mg/kg/injection, schedule: Q01DX009 (ip), vehicle: saline with Tween-80) 178 % of control; (dose: 6.25 mg/kg/injection, schedule: Q01DX009 (ip), vehicle: saline with Tween-80) 154 % of control; (dose: 9.0 mg/kg/injection, schedule: Q01DX009 (ip), vehicle: saline with Tween-80) 117 % of control; (dose: 100.0 mg/kg/injection, schedule: Q04DX003 (ip), vehicle: saline with Tween-80) 104 % of control; (dose: 200.0 mg/kg/injection, schedule: Q04DX003 (ip), vehicle: saline with Tween-80) 104 % of control.
